According to ChEMBL document CHEMBL3232929, “Thermodynamic and structural characterization of halogen bonding in protein-ligand interactions: a case study of PDE5 and its inhibitors” (J Med Chem, 2014):

Target: cGMP-specific 3',5'-cyclic phosphodiesterase (Homo sapiens, UniProt O76074)
Test: Binding affinity to recombinant PDE5 catalytic domain (unknown origin) by ITC analysis

**Q.** `CCCOc1ccc(S(=O)(=O)N2CCN(C)CC2)cc1-c1nc(CC)cc(=O)[nH]1` was tested. Which Kd did it give?
**A.** 1450 nM

**Q.** With `CCCOc1ccc(S(=O)(=O)N2CCN(C)CC2)cc1-c1nc(CC)c(F)c(=O)[nH]1` as the molecule, how does the Kd read?
**A.** 1730 nM

**Q.** For `CCCOc1ccc(S(=O)(=O)N2CCN(C)CC2)cc1-c1nc(CC)c(Cl)c(=O)[nH]1`, which Kd is on record?
**A.** 767 nM

**Q.** Which Kd does the source give for `CCCOc1ccc(S(=O)(=O)N2CCN(C)CC2)cc1-c1nc(CC)c(Br)c(=O)[nH]1` here?
**A.** 416 nM

**Q.** With `CCCOc1ccc(S(=O)(=O)N2CCN(C)CC2)cc1-c1nc(CC)c(I)c(=O)[nH]1` as the molecule, how does the Kd read?
**A.** 152 nM
